# Data: patent publication US20060052298A1, “Use of stable glutamine derivatives to improve drug absorption” (priority 2002, published 2006)
# Read-outs that look alike come from different tables or passages of the source. Peptide text beside a SMILES is read from it.
# Tests used:
# [1] = 2-hour (peak) antiretroviral drug levels in blood; conditions: for concentration at 2 h: blood, po, mean 2-hour drug level, oral ARV therapy; for number of patients whose AZT levels did not improve (of eight): 14 patients taking AZT; for number of patients who did not increase their D4T levels / number of patients with an increase in their D4T levels: 15 patients on D4T; for number of patients whose 3TC levels did not improve / number of patients whose 3TC levels improved with therapy: 18 patients on 3TC; for drug levels improved, all ARV drugs including NNRTI and PI / mean percent improvement in antiretroviral drug levels / peak paired NRTI levels improved: after 7 days of study drug
# Description: HUV positive patients on therapy presenting at the Hospital Sao Jose with diarrhea (≧3 stools/day×14 days) and wasting (loss of ≧10% of their body weight) from March 2001 to April 2002, were invited to participate. After informed consent, patients were assigned to one of four equi-nitrogenous blinded study groups including glycine controls (FIG. 1). Group A received 46 gm of oral glycine/day (Spectrum, Gardena, Calif.). Group B received 30 gm of oral glutamine/day (Cambridge Neutraceuticals, Cambridge, Mass.) and 15 gm of glycine, Group C received 4 grams alanyl-glutamine (Degussa/Creanova, Parsippany, N.J.) and 42 gm of glycine and Group D received 44 gm of alanyl-glutamine (Ala-Gln). The 44 gm alanyl-glutamine dose was calculated to contain equimolar glutamine to 30 gm of glutamine, and glycine was added to glutamine and low dose alanyl-glutamine groups to equalize the amount of nitrogen received by all participants.
# Antiretroviral drug levels were determined at Tibotec-Virco, Mechelen, Belgium. Peak values were determined for each drug, and drug level ranges supplied by the manufacturer were used to define low levels. Viral genotype was determined by DNA sequencing at Visible Genetics, Suwanee, Ga. […] Two-tailed statistical analyses for comparison of paired values included Student's t-test and ANOVA and expressed as […] the standard deviation. Chi-square test or Fisher Exact test were used to compare proportions.
# [2] = test system: HIV positive patients with diarrhea and wasting; test: Clinical response by diarrhea frequency and consistency in AIDS patients with diarrhea and wasting; format: in vivo, human; conditions: 7 days; high dose Ala-Gln 44 gm/day; glycine controls 46 gm/day
# Description: Patients were asked daily about the frequency and consistency of their diarrhea and other gastrointestinal complaints including anorexia, vomiting, and abdominal cramping. Changes in frequency of diarrhea was scored as 0 if the total number of stools in the second half of the 9-day study was less than 2 fewer (or greater) than the number in the first half of the study (including the 2 days before study treatment was started); scored as − or +1 if stool frequencies were reduced or increased by 2 to 3, respectively; and − or +2 if the frequencies were reduced or increased by >3, respectively. In addition, consistencies were graded as liquid, soft or formed and scored as 0, 1 or 2 respectively and changes were added to the frequency scores above. Intestinal permeability was measured by urinary excretion of lactulose, mannitol and their ratio as previously described (Lima et al., Am J Gastroenterol 1997; 92(10):1861-1866). Lactulose and mannitol in urine was determined by high performance liquid chromatography (HPLC) and at Great Smokies Diagnostic Laboratory, Asheville, N.C.
# [3] = test system: salt and water absorption; conditions: compared with glucose; cited from earlier work
# [4] = test system: small intestinal epithelial crypt cells (line IEC-6); test: IEC-6 cell migration after wounding (restitution model); format: cell-based; conditions: IEC-6 cells, 2.5 mmol/liter
# Description: In 1992, McCormack et al. established a model to study the process of cell migration involved in the early restitution of mucosal erosion. […] This model system is used in the present invention in order to show the important effect of stable glutamine derivatives on intestinal epithelial restitution. To investigate the ability of glutamine and stabilized glutamine derivatives to enhance the healing of mucosal tissues, a model system based on the migration of small intestinal epithelial crypt cells (line IEC-6) was used. The small epithelial crypt cell line (IEC-6 cells) was obtained from the American Type Culture Collection (Rockville, Md.). The medium consisted of Dullbecco's modified Eagle medium (DMEM) with 5% heat-inactivated FBS and 10 μg insulin and 50 μg gentamicin sulfate per milliliter. For the experiments, the cells were taken up with 0.25% trypsin plus 2.65 mM EDTA and plated at 6.25×10^4 cell/cm^2 in 35 mm dishes thinly coated with Matrigel according to the manufacturer's instructions. The cells were fed every other day. To initiate migration, the cell layer was scratched with a single razor blade cut to approximately 27 mm in length. The scratch began at the diameter of the dish and extended over an area 7 to 10 mm wide. After the scratch, the cells were washed twice with sterile PBS. Then, medium containing no supplemental substances or medium containing glutamine or alanyl-glutamine (2.5 mmol/liter) was replaced, and the dishes were returned to the incubator. The experiments were carried out in triplicate. After 6 hours, 8 hours, and 24 hours, the dishes were removed from the incubator, and photographed using an inverted phase contrast microscope attached with camera The migration cells in five contiguous 0.1-mm squares were counted at ×100 magnification beginning at the scratch line and extending as far out as the cells had migrated. The counting was done in the area of the highest migration rate by means of an eyepiece reticle.
# [5] = compared with glutamine; cited from earlier work
# [6] = test system: intestinal permeability; conditions: over 28 days, cited from earlier work
# [7] = all study groups together, 18 on 3TC, 15 on D4T, 14 on AZT
# [8] = human, controls without diarrhea or wasting
# [9] = human, study patients with diarrhea and wasting
# [10] = study patients with diarrhea and wasting
# [11] = high dose Ala-Gln, control group
# [12] = high dose Ala-Gln, Gln, glycine
# [13] = high dose Ala-Gln 44 gm/day, Gln 30 gm/day (+15 gm glycine), glycine 46 gm/day
# [14] = high dose Ala-Gln 44 gm/day, Gln 30 gm/day (+15 gm glycine), glycine controls 46 gm/day
# [15] = low dose Ala-Gln 4 grams/day (+42 gm glycine)
smiles,measurement,setting,value
"Cc1cn([C@H]2C[C@H](N=[N+]=[N-])[C@@H](CO)O2)c(=O)[nH]c1=O [AZT, zidovudine, reference compound]",number of patients whose level of this ARV drug improved with therapy,[1]; [7],six
"CC(C)(C)NC(=O)[C@@H]1C[C@@H]2CCCC[C@@H]2CN1C[C@@H](O)[C@H](Cc1ccccc1)NC(=O)[C@H](CC(N)=O)NC(=O)c1ccc2ccccc2n1 [saquinavir, reference compound]","patients with drug levels below the expected range, in words",[1]; in vivo,All
"Nc1ccn([C@@H]2CS[C@H](CO)O2)c(=O)n1 [3TC, lamivudine, reference compound]",number of patients whose level of this ARV drug improved with therapy,[1]; [7],10
same,concentration at 2 h,[1]; [8],2810 ng/mL
same,concentration at 2 h,[1]; [9],1500 ng/mL
same,"patients with drug levels below the expected range, in words",[1]; [10],All
"CC(C)c1nc(CN(C)C(=O)N[C@H](C(=O)N[C@@H](Cc2ccccc2)C[C@H](O)[C@H](Cc2ccccc2)NC(=O)OCc2cncs2)C(C)C)cs1 [ritonavir, reference compound]","patients with drug levels below the expected range, in words",[1]; [10],All
"NCC(=O)O [glycine, reference compound]",number of patients whose AZT levels did not improve (of eight),[1]; [11],half
same,number of patients who did not increase their D4T levels,[1]; [12],2
same,number of patients whose 3TC levels did not improve,[1]; [12],3
same,number of patients whose 3TC levels improved with therapy,[1]; [12],2
same,"drug levels improved, all ARV drugs including NNRTI and PI",[1]; [13],20%
same,mean percent improvement in antiretroviral drug levels,[1]; [14],−32%
same,peak paired NRTI levels improved,[1]; [14],15.4%
same,patients improved (diarrhea frequency and consistency),[2],38%
"O=c1[nH]cnc2c1ncn2[C@H]1CC[C@@H](CO)O1 [ddI, didanosine, reference compound]",concentration at 2 h,[1]; [8],737 ± 226 ng/mL
same,concentration at 2 h,[1]; [9],397 ± 151 ng/mL
same,"patients with drug levels below the expected range, in words",[1]; [10],All
"Cc1c(O)cccc1C(=O)N[C@@H](CSc1ccccc1)[C@H](O)CN1C[C@H]2CCCC[C@H]2C[C@H]1C(=O)NC(C)(C)C [nelfinavir, reference compound]",patients with drug levels below the expected range (low drug levels),[1]; [10],44%
"Cc1cn([C@H]2C=C[C@@H](CO)O2)c(=O)[nH]c1=O [stavudine, reference compound]",patients with drug levels below the expected range (low drug levels),"[1]; human, in vivo, 2 h",20%
same,number of patients whose level of this ARV drug improved with therapy,[1]; in vivo,seven
"O=C1Nc2ccc(Cl)cc2[C@@](C#CC2CC2)(C(F)(F)F)O1 [efavirenz, reference compound]",patients with drug levels below the expected range (low drug levels),[1]; [10],85%
"C[C@H](N)C(=O)N[C@@H](CCC(N)=O)C(=O)O [Ala-Gln, alanyl-glutamine] (H-Ala-Gln-OH)",drive of salt and water absorption,[3],"comparable to, if not better, than glucose"
same,cell migration compared to control,"[4]; 6 hours, 8 hours, and 24 hours after the scratch",significantly enhanced cell migration
same,cell migration increase related to control,[4]; 8 hours after the scratch,107%
same,cell migration increase related to control,[4]; 24 hours after the scratch,173%
same,"enhancement of cell migration, more than glutamine",[4]; after 6 hours,46%
same,"enhancement of cell migration, more than glutamine",[4]; after 8 hours,55%
same,number of patients whose AZT levels did not improve (of eight),[1]; [11],1
same,number of patients whose AZT levels did not improve (of eight),[1]; low dose Ala-Gln,3
same,number of patients with an increase in their D4T levels,[1]; high dose Ala-Gln,3
same,number of patients who did not increase their D4T levels,[1]; [12],1
same,number of patients who did not increase their D4T levels,[1]; low dose Ala-Gln,2
same,number of patients with an increase in their D4T levels,[1]; low dose Ala-Gln,3
same,number of patients whose 3TC levels did not improve,[1]; [12],none
same,number of patients whose 3TC levels improved with therapy,[1]; [12],2
same,number of patients whose 3TC levels did not improve,[1]; low dose Ala-Gln,3
same,number of patients whose 3TC levels improved with therapy,[1]; low dose Ala-Gln,4
same,"drug levels improved, all ARV drugs including NNRTI and PI",[1]; [13],63%
same,mean percent improvement in antiretroviral drug levels,[1]; [14],113%
same,peak paired NRTI levels improved,[1]; [14],75%
same,"drug levels improved, all ARV drugs including NNRTI and PI",[1]; [15],50%
same,mean percent improvement in antiretroviral drug levels,[1]; [15],8%
same,peak paired NRTI levels improved,[1]; [15],55%
same,patients improved (diarrhea frequency and consistency),[2],89%
same,stability in acidic water solutions,[5],much more stable
"NC(=O)CC[C@H](N)C(=O)O [Gln, glutamine]",intestinal permeability,[6]; 4 g/day,less worsening
same,absorption of mannitol,[6]; 8 g/day,improved
same,intestinal permeability,[6]; 8 g/day,stabilization
same,number of patients who did not increase their D4T levels,[1]; [12],3
same,number of patients whose 3TC levels did not improve,[1]; [12],2
same,number of patients whose 3TC levels improved with therapy,[1]; [12],2
same,"drug levels improved, all ARV drugs including NNRTI and PI",[1]; [13],57%
same,mean percent improvement in antiretroviral drug levels,[1]; [14],14%
same,peak paired NRTI levels improved,[1]; [14],64.3%
